Results: article PMC7108740, “Exploring the molecular structures that confer ligand selectivity for galanin type II and III receptors” (PLoS ONE, 2020)
Positions count from the first letter of the chain named. Ends that are not written are not given here.

Legend:
Format in all cases: cell-based
[1] = biological target: T1, GALR3 single mutant L^100F (Homo sapiens, UniProt O60755, L100F); test: SRE-luc luciferase assay, GALR3 L100F; conditions: GALR3 L^100F; SRE-luc in HEK293 Gqi cells, ligand 6 h; mean ± S.E.; SEM
T1 construct: expressed in transfected cells; host or cells: HEK293 cells stably expressing Gqi
T1 sequence (O60755 1-368 L100F): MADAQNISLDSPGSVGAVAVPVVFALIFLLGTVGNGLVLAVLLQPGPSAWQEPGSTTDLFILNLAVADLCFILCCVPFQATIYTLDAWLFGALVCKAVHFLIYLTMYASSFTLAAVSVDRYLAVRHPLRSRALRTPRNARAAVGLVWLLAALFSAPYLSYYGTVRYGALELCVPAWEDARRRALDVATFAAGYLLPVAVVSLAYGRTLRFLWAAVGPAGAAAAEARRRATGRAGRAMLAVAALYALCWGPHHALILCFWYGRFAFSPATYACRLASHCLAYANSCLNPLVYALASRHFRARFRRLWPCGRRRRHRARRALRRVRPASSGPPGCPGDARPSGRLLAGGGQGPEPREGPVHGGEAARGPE
Text: (§1) For domain swapping between GALR2 and GALR3, individual cDNA fragments of interest were amplified by polymerase chain reaction (PCR) with Pfu polymerase (ELPIS Biotech, Daejeon, Korea) and two specific primers, one corresponding to the 5' or 3' end of the GALR2 or GALR3 cDNA and the other to the region of overlap between the two receptors. The two resulting fragments, one from GALR2 and the other from GALR3, were subjected to a second round of PCR to generate the chimeric cDNAs. To construct single, double-, triple-, pentuple-, hextuple-, and septuple-mutant receptors, amino acids of GALR3 were substituted for the amino acids at the corresponding positions in GALR2 using PCR-based site-directed mutagenesis. All of the chimeric constructs were cloned into the pcDNA3 expression vector at HindⅢ and XbaⅠ sites. The DNA sequences of the chimeras were verified by automatic sequencing. HEK293 cells stably expressing the Gqi construct, which allows induction of Gq-dependent signaling pathways upon activation of a Gi-coupled receptor [14, 30], were maintained in Dulbecco's Modified Eagle's Medium (DMEM) in the presence of 10% fetal bovine serum and 1% penicillin and streptomycin. For all transfections, 200 ng DNA (100 ng receptor and 100 ng SRE-luc) mixed with lipofectamine 2000 was applied to 60–80% confluent cells on a multi-well plate according to the manufacturer's instructions (Invitrogen, Carlsbad, CA). For luciferase assays, HEK293 Gqi cells were seeded on 48-well plates at a density of 2.5 × 10^4 cells/well one day before transfection. […] The luciferase activity in 50 μl cell extract was determined using a luciferase assay system according to the standard protocol for the Synergy 2 Multi-Mode Microplate Reader (BioTek, Winooski, VT, USA). […] The concentrations of agonists that induced half-maximal stimulation (EC50) were calculated using the GraphPad PRISM5 software (GraphPad software, Inc., San Diego, CA). […]

[2] = biological target: T2, GALR3 double mutant L^100F, Y^103F (Homo sapiens, UniProt O60755, L100F/Y103F); test: SRE-luc luciferase assay, GALR3 L100F,Y103F; conditions: GALR3 L^100F, SRE-luc in HEK293 Gqi cells, ligand 6 h, mean ± S.E., SEM
T2 construct: expressed in transfected cells; host or cells: HEK293 cells stably expressing Gqi
T2 sequence (O60755 1-368 L100F/Y103F): T1 sequence (O60755 1-368 L100F) with Y103F
Text: as §1

[3] = biological target: T3, GALR3 single mutant Y^103F (Homo sapiens, UniProt O60755, Y103F); test: SRE-luc luciferase assay, GALR3 Y103F; conditions: GALR3 Y^103F; SRE-luc in HEK293 Gqi cells, ligand 6 h; mean ± S.E.; SEM
T3 construct: expressed in transfected cells; host or cells: HEK293 cells stably expressing Gqi
T3 sequence (O60755 1-368 Y103F): T1 sequence (O60755 1-368 L100F) with F100L, Y103F
Text: as §1

[4] = biological target: T4, GALR3 triple mutant L^100F, Y^103F, Y^107H (Homo sapiens, UniProt O60755, L100F/Y103F/Y107H); test: SRE-luc luciferase assay, GALR3 L100F,Y103F,Y107H; conditions: GALR3 L^100F, SRE-luc in HEK293 Gqi cells, ligand 6 h, mean ± S.E., SEM
T4 construct: expressed in transfected cells; host or cells: HEK293 cells stably expressing Gqi
T4 sequence (O60755 1-368 L100F/Y103F/Y107H): T1 sequence (O60755 1-368 L100F) with Y103F, Y107H
Text: as §1

EC50 [1]	EC50 [2]	EC50 [3]	EC50 [4]	Compound
66.1 ± 13.6 nM	42.7 ± 9.54 nM	32.4 ± 10.5 nM	30.9 ± 9.03 nM	CSCC[C@H](NC(=O)[C@H](C)NC(=O)[C@H](CCC(N)=O)NC(=O)[C@@H]1CCCN1C(=O)[C@@H](NC(=O)[C@H](Cc1c[nH]c2ccccc12)NC(=O)[C@@H](N)CC(N)=O)[C@@H](C)O)C(=O)N[C@@H](CC(C)C)C(=O)N[C@@H](Cc1ccc(O)cc1)C(=O)N[C@@H](CC(C)C)C(=O)N[C@@H](CCCCN)C(=O)NCC(=O)N[C@@H](C)C(=O)N[C@@H](CCC(N)=O)C(N)=O [SPX, reference compound]
288 ± 84.2 nM	174 ± 45 nM	676 ± 127 nM	83.2 ± 26.9 nM	NWTPNAMLYLKGAQ-NH2 [N^5-SPX]
269 ± 45.3 nM	155 ± 45.2 nM	302 ± 72.9 nM	64.6 ± 12.1 nM	NWTPQAALYLKGAQ-NH2 [A^7-SPX]
